The target in the assay is GilOI (Streptomyces griseoflavus, UniProt Q7X2G6). As to the kind of experiment: cofactor content of the purified enzyme. Type of assay: binding.

For the compound `Cc1cc2nc3c(=O)[nH]c(=O)nc-3n(C[C@H](O)[C@H](O)[C@H](O)COP(=O)(O)OP(=O)(O)OC[C@H]3O[C@@H](n4cnc5c(N)ncnc54)[C@H](O)[C@@H]3O)c2cc1C` [flavin adenine dinucleotide], the “cofactor content of the purified enzyme (Figure S3)” value is “GilOI and GilOIV are oxygenases that contain flavin adenine dinucleotide (FAD, Figure S3”.

Source of the values: paper PMC3343456 (Angewandte Chemie (International ed. in English), 2011).
